# Results as given in ChEMBL document CHEMBL1201862, “PubChem BioAssay data set” (2004).
# Calls of active or inactive are those of the source.
# Tests used:
# CHO = CHO cell viability loss, potency – luminescence, cytotoxicity control for TLR9-MyD88 binding inhibitor project, dose response (AID 588339); format: functional, cell-based, hamster; settings: Cricetulus griseus;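 note: CHO cells stably coexpressing TLR9 and MyD88 fusions from primary screen; compound exposure lasted 48 hours before viability readout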
# Keap1/Nrf2 = Keap1/Nrf2 (Homo sapiens, UniProt Q14145); assay: disruptors of Keap1 binding to Nrf2 peptide – biochemical, fluorescence polarization, cherry-picked samples, dose response (AID 588683)
# Ephrin type-A receptor 4 = Ephrin type-A receptor 4 (Mus musculus, UniProt Q03137); assay: EphA4 ligand-binding antagonists – biochemical, colorimetric, mouse EphA4, primary screen (AID 689); format: functional
# Beta Lactamase = Beta Lactamase (Pseudomonas aeruginosa, UniProt Q932Y6); assay: BLA reporter interference, concentration series – BLA reporter cells, FRET fluorescence, artefact control for TLR9-MyD88 binding inhibitor project, dose response (AID 588341); format: cell-based;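 note: cell based assay in CHO-K1 cells stably expressing beta-lactamase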
# Troponin, cardiac muscle = Troponin, cardiac muscle (Homo sapiens, UniProt P19429+P45379+P63316); assay: Fluorescence-based biochemical high throughput dose response assay for activators of the calcium sensitivity of cardiac Regulated Thin Filaments (RTF). [Related pubchem assays (depositor defined):AID493008, AID493018, AID504382, AID504383]; format: protein-complex assay
# HeLa = assay: viability loss in HeLa cells – cell-based, 24 h, cherry-picked samples, cytotoxicity control, dose response (AID 504726); format: functional; settings: Homo sapiens
# [1] = molecular target: T1, Endoribonuclease toxin MazF (Escherichia coli K-12, UniProt P0AE70); assay: activation of MazEF endoribonuclease cleavage – biochemical, fluorescence, single-stranded RNA substrate, uHTS hits, dose response (AID 588481); format: functional
# T1 sequence (P0AE70 whole entry): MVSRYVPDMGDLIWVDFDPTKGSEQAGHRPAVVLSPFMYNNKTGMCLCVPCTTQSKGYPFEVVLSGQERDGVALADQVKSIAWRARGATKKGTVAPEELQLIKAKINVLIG
# [2] = molecular target: T2, Corticotropin-releasing factor receptor 2/Corticotropin-releasing factor-binding protein (Homo sapiens, UniProt P24387+Q13324); assay: activators of CRF receptor 2 with binding protein – uHTS hits, confirmation (AID 602473); format: functional; settings: read-out: EC50_Mean
# T2 sequence (Q13324 whole entry): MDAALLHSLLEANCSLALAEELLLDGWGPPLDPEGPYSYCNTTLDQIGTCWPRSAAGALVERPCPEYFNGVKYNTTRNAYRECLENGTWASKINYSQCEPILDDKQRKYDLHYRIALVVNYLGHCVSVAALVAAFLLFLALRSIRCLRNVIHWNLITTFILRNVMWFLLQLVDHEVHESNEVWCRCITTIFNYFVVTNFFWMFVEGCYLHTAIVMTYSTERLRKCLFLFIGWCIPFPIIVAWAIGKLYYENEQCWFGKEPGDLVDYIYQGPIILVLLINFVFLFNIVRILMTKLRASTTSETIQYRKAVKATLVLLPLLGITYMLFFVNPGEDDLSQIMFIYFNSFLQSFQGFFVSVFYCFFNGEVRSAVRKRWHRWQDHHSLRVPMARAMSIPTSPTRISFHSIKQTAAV
# T2 sequence (P24387 whole entry): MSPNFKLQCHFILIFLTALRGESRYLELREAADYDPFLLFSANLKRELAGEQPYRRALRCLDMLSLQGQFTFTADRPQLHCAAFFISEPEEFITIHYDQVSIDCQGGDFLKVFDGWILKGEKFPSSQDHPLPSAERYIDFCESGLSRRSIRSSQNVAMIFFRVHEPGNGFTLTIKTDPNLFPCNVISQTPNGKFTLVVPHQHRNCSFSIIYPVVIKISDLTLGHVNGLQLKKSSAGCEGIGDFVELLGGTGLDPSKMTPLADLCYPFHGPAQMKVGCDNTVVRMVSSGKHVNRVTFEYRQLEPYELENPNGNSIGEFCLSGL
# [3] = molecular target: T1, Endoribonuclease toxin MazF; assay: substrate-only fluorescence increase artefacts – biochemical, single-stranded RNase substrate, counter-screen for MazEF activator project, dose response (AID 588502); format: functional
# ORF 73 = ORF 73 (Human herpesvirus 8, UniProt O40947); assay: KSHV LANA DNA-binding disruption – biochemical, fluorescence polarization, cherry-picked samples, dose response (AID 504725); set-up: species or system Human gammaherpesvirus 8;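 note: fluorescence polarization of a labeled DNA duplex reporting LANA DNA binding; potency is for inhibitors that block LANA binding to the DNA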
# INS1 = assay: INS-1E survival protection against cytokine death – cell-based, luminescence, retest, dose response (AID 449756); format: functional; settings: Rattus norvegicus;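 note: cell death triggered by IL-1 beta plus TNF-alpha plus IFN-gamma mixture; protective hits raise ATP signal compared with cytokine alone wells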
# HEK293 [4] = assay: HEK293T cell viability loss, resazurin readout – resazurin fluorescence, cytotoxicity control for NF-kB activator project, SAR follow-up (AID 493251); format: functional, cell-based
# HEK293 [5] = assay: SAR Analysis of small molecule inhibitors of T-cell specific antigen receptor-induced NF-kB activation in a HEK-293T cell line using a luminescence assay - Set 2. [Related pubchem assays (depositor defined):AID435003, AID435012, AID489026]; format: functional, cell-based; settings: Homo sapiens
# [6] = test system: Streptococcus sp. 'group A'; assay: Streptococcus pyogenes SK(-)GAS viability under kanamycin – luminescence, BacTiterGlo, confirmation, counter-screen for streptokinase expression inhibitor project, dose response (AID 1900); format: functional, organism-based
# [7] = Counterscreen for AddAB inhibitors: absorbance-based bacterial cell-based high throughput dose response assay for inhibitors of bacterial viability. [Related pubchem assays (depositor defined):AID435030, AID449728, AID449731, AID488942, AID488955, AID488956]; format: functional
# Jurkat [8] = assay: SAR Analysis of small molecule inhibitors of T-cell specific antigen receptor-induced NF-kB activation in a Jurkat cell line using a luminescence assay - Set 2. [Related pubchem assays (depositor defined):AID435003, AID435012, AID465]; format: functional, cell-based; settings: Homo sapiens
# [9] = Luminescence-based dose response cell-based high throughput screening assay for cytotoxic compounds using the IEC-6 intestinal epithelial cell line. [Related pubchem assays: 1858 (Summary AID.), 1825 (Counterscreen.), 1907 (Confirmation screen.)]; format: functional
# [10] = NIH3T3 cell viability loss – ATP luminescence, mouse fibroblasts, counter-screen, dose response (AID 2010); format: functional, cell-based;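 note: cells exposed to compound for about 90 hours before reading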
# Exodeoxyribonuclease V = Exodeoxyribonuclease V (Escherichia coli (strain K12), UniProt P04993+P07648+P08394); assay: RecBCD inhibition via phage-restricted bacterial growth – absorbance, V66 E. coli, mutant T4 phage, counter-screen for AddAB inhibitor project, dose response (AID 492957); format: functional, cell-based, Escherichia coli str. K-12 substr. MG1655
# cells [11] = format: functional, cell-based
# [12] = fluconazole-exposed Candida albicans growth modulators – fluorescence, retest, confirmation (AID 2467); format: functional, cell-based
# [13] = HEK-293T viability loss after treatment – luminescence, T-cell screen hits, cytotoxicity control for TCR NF-kB inhibitor project, dose response (AID 489026); format: functional, cell-based;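 note: cells exposed to compound about 14 hours before the viability readout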
# HEK293 [14] = assay: SAR Analysis of small molecule inhibitors of T-cell specific antigen receptor-induced NF-kB activation in a HEK-293T cell line using a luminescence assay. [Related pubchem assays (depositor defined):AID435003, AID435012, AID489026]; format: functional, cell-based; settings: Homo sapiens
# Jurkat [15] = assay: SAR Analysis of small molecule inhibitors of T-cell specific antigen receptor-induced NF-kB activation in a Jurkat cell line using a luminescence assay. [Related pubchem assays (depositor defined):AID435003, AID435012, AID465]; format: functional, cell-based; settings: Homo sapiens
# Streptococcus = assay: GAS UMAA2166 growth inhibition – luminescence, BacTiterGlo, counter-screen for streptokinase expression inhibitor project, dose response (AID 1915); format: functional, organism-based;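 note: potency for reduction of bacterial viability or growth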
# [16] = NIH-3T3 fibroblast cytotoxicity, dose response, cytotoxicity control, cell-based, fluorescence, Alamar Blue, secondary assay (AID 2327); format: functional;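 note: NIH-3T3 mouse fibroblasts cultured with fluconazole at 8 µg/mL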
# [17] = Trypanosoma cruzi growth suppression in host cells – NIH3T3 host cells, beta-gal luminescence, confirmation (AID 2044); format: functional, cell-based;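 note: intracellular parasites grown in NIH/3T3 mouse fibroblasts as host cells; luminescent beta-galactosidase reporter signal from transgenic T. cruzi replicating inside host cells; inhibitors lower the luminescence signal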
# HEK293 [18] = assay: EBV LMP1 TES2 canonical NF-kB signalling blockers – cell-based, HEK293, luciferase, cherry-pick, dose response (AID 588343); format: functional; settings: Homo sapiens
# Streptokinase A = molecular target: T3, Streptokinase A (Streptococcus pyogenes serotype M1, UniProt P10520); assay: viability-normalized secreted streptokinase activity reduction – plasminogen activation absorbance, OD405, dose response (AID 1914); format: functional, Streptococcus pyogenes M1 GAS;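 note: secreted streptokinase activity via plasminogen activation per viability signal from cell pellet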
# T3 sequence (P10520 whole entry): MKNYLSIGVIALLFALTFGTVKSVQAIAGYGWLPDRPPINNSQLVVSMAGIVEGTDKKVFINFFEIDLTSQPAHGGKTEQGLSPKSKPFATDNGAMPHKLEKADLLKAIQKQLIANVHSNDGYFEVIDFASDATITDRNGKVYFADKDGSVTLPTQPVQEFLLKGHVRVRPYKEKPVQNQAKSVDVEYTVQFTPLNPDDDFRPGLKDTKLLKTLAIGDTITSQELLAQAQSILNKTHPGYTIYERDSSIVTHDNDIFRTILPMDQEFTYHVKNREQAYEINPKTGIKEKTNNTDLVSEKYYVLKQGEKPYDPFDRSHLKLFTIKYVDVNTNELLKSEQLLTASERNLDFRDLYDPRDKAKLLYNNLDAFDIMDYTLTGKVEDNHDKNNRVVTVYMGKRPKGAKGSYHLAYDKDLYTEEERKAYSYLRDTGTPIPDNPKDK
# [19] = molecular target: ATP-dependent molecular chaperone HSP82 (Candida albicans (strain WO-1) (Yeast), UniProt C4YTQ8); assay: steroid-induced GRE reporter decrease in yeast – S. cerevisiae, luminescence, Hsp90 inhibitor project, dose response (AID 2400); format: functional, cell-based;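 note: beta-galactosidase luminescence from glucocorticoid response element reporter as proxy for Hsp90 function; inhibitor potency where signal loss means Hsp90 inhibition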
# [20] = molecular target: Heat shock protein HSP 90-alpha (Homo sapiens, UniProt P07900); format: functional, organism-based
# cells [21] = format: functional, cell-based; remark: listed apart in the source
# [22] = molecular target: T4, Serine/threonine-protein phosphatase (Candida dubliniensis (strain CD36 / CBS 7987 / NCPF 3949 / NRRLY-17841) (Yeast), UniProt B9W6M3); assay: blockers of CaCl2-induced CDRE-lacZ signaling – S. cerevisiae, luminescence, secondary, dose response (AID 2388); format: functional, cell-based;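 note: yeast reporter cells carrying a calcineurin-responsive lacZ construct stimulated with calcium chloride; luminescent beta-galactosidase reporter signal in whole cells rather than isolated phosphatase activity; potency for inhibition where a drop in reporter signal means calcineurin blockade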
# T4 sequence (B9W6M3 whole entry): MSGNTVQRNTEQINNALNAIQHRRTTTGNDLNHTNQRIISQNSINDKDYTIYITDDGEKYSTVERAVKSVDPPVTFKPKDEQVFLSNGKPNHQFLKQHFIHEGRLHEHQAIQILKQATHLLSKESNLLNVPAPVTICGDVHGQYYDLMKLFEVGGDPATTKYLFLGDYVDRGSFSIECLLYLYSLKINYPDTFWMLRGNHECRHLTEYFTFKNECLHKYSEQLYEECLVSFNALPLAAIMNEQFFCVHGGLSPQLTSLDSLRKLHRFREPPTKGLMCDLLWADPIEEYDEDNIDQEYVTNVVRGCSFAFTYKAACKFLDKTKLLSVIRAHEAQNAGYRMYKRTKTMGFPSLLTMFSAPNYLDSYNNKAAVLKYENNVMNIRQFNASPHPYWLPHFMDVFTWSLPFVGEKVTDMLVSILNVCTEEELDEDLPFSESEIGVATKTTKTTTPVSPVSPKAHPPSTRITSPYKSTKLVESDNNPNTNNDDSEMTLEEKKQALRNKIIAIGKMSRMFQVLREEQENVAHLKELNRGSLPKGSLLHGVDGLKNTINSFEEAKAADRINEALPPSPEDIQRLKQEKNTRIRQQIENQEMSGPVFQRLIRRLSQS
# Chain of Keap1/Nrf2 (Q16236 whole entry): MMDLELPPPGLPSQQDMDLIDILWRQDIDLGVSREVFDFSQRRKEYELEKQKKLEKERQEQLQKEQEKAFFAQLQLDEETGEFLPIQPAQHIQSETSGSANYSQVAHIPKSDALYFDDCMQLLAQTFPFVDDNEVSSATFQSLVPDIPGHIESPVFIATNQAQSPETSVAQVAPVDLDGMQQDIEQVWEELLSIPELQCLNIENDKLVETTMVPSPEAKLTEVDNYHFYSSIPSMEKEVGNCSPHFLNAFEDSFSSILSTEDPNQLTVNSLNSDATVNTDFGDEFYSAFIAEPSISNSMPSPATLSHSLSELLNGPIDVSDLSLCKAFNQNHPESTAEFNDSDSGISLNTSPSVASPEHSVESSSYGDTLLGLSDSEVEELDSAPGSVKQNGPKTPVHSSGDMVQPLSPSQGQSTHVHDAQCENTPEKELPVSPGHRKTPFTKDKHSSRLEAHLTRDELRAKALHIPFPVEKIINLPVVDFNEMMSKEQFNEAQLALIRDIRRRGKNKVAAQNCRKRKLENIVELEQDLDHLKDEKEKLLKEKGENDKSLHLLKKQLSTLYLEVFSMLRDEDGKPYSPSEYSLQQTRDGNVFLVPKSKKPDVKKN
# Chain of Keap1/Nrf2 (Q14145 whole entry): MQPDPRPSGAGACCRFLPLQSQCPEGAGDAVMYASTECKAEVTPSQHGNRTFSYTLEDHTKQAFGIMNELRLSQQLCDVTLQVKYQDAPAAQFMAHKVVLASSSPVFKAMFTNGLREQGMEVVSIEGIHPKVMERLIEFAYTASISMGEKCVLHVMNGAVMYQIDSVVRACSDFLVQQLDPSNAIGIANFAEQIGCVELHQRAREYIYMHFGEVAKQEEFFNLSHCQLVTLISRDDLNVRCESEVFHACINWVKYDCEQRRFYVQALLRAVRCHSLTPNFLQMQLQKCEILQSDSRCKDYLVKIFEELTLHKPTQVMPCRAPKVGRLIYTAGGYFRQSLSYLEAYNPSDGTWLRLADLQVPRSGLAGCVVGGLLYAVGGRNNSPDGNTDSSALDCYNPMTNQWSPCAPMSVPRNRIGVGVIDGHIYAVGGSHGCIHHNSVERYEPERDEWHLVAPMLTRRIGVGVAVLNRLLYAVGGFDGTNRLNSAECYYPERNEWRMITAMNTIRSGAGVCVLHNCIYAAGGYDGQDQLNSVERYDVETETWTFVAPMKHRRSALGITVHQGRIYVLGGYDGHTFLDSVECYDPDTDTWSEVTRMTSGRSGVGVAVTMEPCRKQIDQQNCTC
# Chain of Exodeoxyribonuclease V (P04993 whole entry): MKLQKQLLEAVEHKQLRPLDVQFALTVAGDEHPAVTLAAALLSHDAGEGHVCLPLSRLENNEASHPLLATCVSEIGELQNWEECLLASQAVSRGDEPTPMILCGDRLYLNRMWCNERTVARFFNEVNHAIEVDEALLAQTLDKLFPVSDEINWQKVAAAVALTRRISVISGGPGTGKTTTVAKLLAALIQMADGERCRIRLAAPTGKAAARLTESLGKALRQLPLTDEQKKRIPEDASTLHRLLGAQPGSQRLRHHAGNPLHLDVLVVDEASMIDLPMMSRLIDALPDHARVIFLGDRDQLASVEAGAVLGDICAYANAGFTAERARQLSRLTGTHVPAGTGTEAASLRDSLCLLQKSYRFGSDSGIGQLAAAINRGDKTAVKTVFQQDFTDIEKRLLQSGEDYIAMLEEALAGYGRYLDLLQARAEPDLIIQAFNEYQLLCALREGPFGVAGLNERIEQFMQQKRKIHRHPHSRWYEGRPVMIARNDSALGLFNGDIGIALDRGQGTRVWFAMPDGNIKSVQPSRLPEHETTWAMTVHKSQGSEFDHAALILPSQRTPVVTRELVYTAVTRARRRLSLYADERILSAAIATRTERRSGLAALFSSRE
# Chain of Exodeoxyribonuclease V (P07648 whole entry): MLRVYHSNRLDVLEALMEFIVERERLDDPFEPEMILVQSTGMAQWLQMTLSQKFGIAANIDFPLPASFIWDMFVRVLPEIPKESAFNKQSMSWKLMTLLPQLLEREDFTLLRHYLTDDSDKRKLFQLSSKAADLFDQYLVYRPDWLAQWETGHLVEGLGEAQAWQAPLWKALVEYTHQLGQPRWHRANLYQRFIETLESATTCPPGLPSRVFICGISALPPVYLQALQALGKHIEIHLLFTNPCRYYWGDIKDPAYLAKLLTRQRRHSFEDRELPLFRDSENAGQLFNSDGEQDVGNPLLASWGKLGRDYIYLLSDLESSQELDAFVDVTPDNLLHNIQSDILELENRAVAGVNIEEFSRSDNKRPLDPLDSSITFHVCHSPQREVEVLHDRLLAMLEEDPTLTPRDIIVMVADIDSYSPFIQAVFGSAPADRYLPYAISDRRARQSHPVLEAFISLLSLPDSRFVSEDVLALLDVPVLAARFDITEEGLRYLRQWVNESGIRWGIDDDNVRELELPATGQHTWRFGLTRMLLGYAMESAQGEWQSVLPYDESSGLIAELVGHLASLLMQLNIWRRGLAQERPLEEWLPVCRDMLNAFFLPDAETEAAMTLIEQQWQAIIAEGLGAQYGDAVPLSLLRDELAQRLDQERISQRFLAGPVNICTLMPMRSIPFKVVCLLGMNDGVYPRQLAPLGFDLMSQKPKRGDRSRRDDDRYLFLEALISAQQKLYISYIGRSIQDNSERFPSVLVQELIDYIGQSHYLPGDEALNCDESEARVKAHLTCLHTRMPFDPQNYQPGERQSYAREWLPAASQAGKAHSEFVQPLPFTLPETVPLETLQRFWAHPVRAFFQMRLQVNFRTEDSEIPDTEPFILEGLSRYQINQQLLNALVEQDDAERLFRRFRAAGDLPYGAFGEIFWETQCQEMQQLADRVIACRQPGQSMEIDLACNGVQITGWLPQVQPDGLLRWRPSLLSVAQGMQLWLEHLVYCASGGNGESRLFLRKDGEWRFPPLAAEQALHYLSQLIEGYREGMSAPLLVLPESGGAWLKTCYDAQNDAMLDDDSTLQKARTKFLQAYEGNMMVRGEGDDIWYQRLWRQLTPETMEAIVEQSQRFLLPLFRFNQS
# Chain of Exodeoxyribonuclease V (P08394 whole entry): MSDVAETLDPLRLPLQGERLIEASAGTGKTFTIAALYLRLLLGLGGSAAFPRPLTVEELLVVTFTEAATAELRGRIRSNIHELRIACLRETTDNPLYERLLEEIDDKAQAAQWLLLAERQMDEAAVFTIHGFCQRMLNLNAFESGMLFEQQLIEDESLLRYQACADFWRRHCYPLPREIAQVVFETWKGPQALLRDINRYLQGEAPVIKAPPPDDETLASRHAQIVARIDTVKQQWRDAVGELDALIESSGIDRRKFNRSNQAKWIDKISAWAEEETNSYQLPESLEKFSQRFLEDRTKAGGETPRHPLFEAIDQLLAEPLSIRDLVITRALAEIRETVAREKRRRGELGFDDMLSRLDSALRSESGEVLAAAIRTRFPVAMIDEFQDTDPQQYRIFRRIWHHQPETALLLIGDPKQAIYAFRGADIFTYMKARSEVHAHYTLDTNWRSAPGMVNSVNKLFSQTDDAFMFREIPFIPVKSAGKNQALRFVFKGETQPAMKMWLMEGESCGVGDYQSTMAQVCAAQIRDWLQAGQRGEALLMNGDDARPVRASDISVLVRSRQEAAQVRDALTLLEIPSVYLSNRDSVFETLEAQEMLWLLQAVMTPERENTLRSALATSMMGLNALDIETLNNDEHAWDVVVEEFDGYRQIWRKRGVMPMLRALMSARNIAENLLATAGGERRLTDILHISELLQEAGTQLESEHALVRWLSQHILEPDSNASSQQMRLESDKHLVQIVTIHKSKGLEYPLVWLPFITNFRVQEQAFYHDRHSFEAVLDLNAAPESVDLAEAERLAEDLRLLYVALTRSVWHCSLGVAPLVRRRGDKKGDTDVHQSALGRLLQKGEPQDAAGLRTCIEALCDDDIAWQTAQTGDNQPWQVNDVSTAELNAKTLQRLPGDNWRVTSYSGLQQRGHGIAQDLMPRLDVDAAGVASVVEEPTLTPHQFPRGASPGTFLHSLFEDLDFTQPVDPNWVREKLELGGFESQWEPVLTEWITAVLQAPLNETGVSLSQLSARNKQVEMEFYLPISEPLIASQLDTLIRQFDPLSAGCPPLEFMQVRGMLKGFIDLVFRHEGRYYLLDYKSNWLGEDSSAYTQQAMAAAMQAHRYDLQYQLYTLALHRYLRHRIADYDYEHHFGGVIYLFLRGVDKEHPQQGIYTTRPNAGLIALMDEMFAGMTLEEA
# Chain of Beta Lactamase (Q932Y6 whole entry): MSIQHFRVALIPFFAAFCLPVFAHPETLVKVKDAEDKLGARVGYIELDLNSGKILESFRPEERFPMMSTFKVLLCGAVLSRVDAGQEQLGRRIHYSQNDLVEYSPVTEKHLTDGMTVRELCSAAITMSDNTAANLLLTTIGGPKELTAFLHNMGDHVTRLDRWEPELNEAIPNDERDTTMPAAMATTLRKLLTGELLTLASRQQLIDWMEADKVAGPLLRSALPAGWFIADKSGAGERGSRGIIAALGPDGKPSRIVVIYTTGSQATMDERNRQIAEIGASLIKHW
smiles,measurement,setting,value
CCn1nc(-c2ccccc2)c2nc3ccccc3nc21,IC50,CHO,> 49.7 µM (inactive)
same,AC50,Keap1/Nrf2,39.5 µM (active)
same,IC50,Ephrin type-A receptor 4,5.45 µM (active)
same,IC50,Beta Lactamase,5.36 µM (active)
same,EC50,"Troponin, cardiac muscle",5.55 µM (active)
same,AC50,HeLa,96.5 µM (active)
same,EC50,[1],> 99 µM (inactive)
same,EC50,[2],6.66 µM (active)
same,EC50,[3],84 µM (inactive)
same,AC50,ORF 73,30.9 µM (active)
CCCC(=O)NC(c1ccc(C)cc1)c1ccc2cccnc2c1O (centres undefined),AC50,INS1,0.535 µM (active)
same,IC50,"HEK293 [4]; Homo sapiens, HEK293",8.08 µM (active)
same,IC50,HEK293 [4]; hek293,5.93 µM (active)
same,IC50,HEK293 [5],6.36 µM (active)
same,EC50,[6],6.65 µM (active)
same,IC50,[7],> 119 µM (inactive)
same,IC50,Jurkat [8],2.52 µM (active)
same,IC50,[9],1.47 µM (active)
same,EC50,[10],0.588 µM (active)
same,IC50,Exodeoxyribonuclease V,> 119 µM (inactive)
same,EC50,cells [11],> 350 µM (not active)
same,EC50,[12],0.449 µM (active)
same,IC50,[13],> 80 µM (inactive)
same,IC50,HEK293 [14],6.94 µM (active)
same,IC50,Jurkat [15],3.79 µM (active)
same,EC50,Streptococcus,14.7 µM (active)
same,EC50,[16],23.6 µM (inconclusive)
same,EC50,[17],0.348 µM (active)
same,AC50,HEK293 [18],4.94 µM (active)
same,EC50,Streptokinase A,> 150 µM (not active)
same,EC50,[19],> 150 µM (inactive)
same,AC50,[20],3.35 µM (active)
same,EC50,cells [21],6.34 µM (active)
same,EC50,[22],> 180 µM (inactive)
